Converted amounts (≈) assume the structure as drawn. One block for each compound: values may come before it.
Experiments:
Test in all cases: ≥ marks a high value that may be exact or a test limit, other limits are often not marked, values filed in µg/mL are converted to µM
[1] = test system: Candida glabrata ATCC 90030
[2] = test system: Enterococcus faecalis CECT 481
[3] = test system: Escherichia coli CECT 434
[4] = test system: Staphylococcus aureus CECT 435
Candida krusei ATCC 6258 = test system: Candida krusei ATCC 6258
Staphylococcus aureus MR = test system: Staphylococcus aureus MR
[5] = test system: Streptococcus agalactiae CECT 183T
[6] = test system: Klebsiella pneumoniae ATCC 13883
[7] = test system: Enterococcus faecalis ATCC 19433
[8] = test system: Pseudomonas aeruginosa ATCC 27853
[9] = test system: Salmonella enterica subsp. enterica serovar Typhimurium LT2
[10] = test system: Enterococcus faecium ATCC 19434
[11] = test system: Bacillus subtilis ATCC 6633
[12] = test system: Escherichia coli ATCC 25922
[13] = test system: Proteus mirabilis CCUG 26767
[14] = test system: Staphylococcus aureus ATCC 29213
[15] = test system: Micrococcus luteus NCIMB 13267
[16] = test system: Staphylococcus aureus ATCC 6538
Escherichia coli K-12 = test system: Escherichia coli K-12
[17] = test system: Acinetobacter baumannii ATCC 17978
[18] = test system: Staphylococcus aureus ATCC 9144
[19] = test system: Pseudomonas aeruginosa PAO1
[20] = test system: Candida albicans ATCC 90028
[21] = test system: Escherichia coli NCTC 12923
[22] = test system: Staphylococcus aureus USA 300
Candida krusei NCPF 3876 = test system: Candida krusei NCPF 3876
[23] = test system: Klebsiella pneumoniae NCTC 13368
[24] = test system: Pseudomonas aeruginosa PA214
[25] = test system: Staphylococcus aureus ATCC 33591
[26] = test system: Klebsiella pneumoniae ATCC 700603
[27] = test system: Acinetobacter baumannii ATCC BAA-1605
[28] = test system: Acinetobacter baumannii CR17
[29] = test system: Enterococcus faecium ATCC 700221
[30] = test system: Acinetobacter baumannii ATCC 19606
[31] = test system: Enterococcus faecalis ATCC 29212
[32] = test system: Streptococcus agalactiae ATCC 27956
[33] = test system: Bacillus cereus ATCC 10876
[34] = test system: Streptococcus equi subsp. zooepidemicus ATCC 43079
[35] = test system: Salmonella enterica subsp. enterica serovar Typhimurium ATCC 14028
[36] = test system: Streptococcus dysgalactiae subsp. dysgalactiae ATCC 27957

MIC [1]: ≥ 126 µM | MIC [2]: 7.88 µM (≈ 16 µg/mL) | MIC [3]: 31.5 µM (≈ 64 µg/mL) | MIC [4]: 7.88 µM (≈ 16 µg/mL) | MIC (Candida krusei ATCC 6258): 3.94 µM (≈ 8 µg/mL) | MIC (Staphylococcus aureus MR): 7.88 µM (≈ 16 µg/mL) | MIC [5]: 7.88 µM (≈ 16 µg/mL)
SMILES: CC[C@H](C)[C@H](NC(=O)CNC(=O)[C@H](CCC(N)=O)NC(=O)[C@@H](NC(=O)[C@@H]1CCCN1C(=O)CNC(=O)[C@H](CC(=O)O)NC(=O)CNC(=O)[C@H](CCCCN)NC(=O)[C@H](CC(C)C)NC(=O)[C@@H](NC(=O)[C@H](CS)NC(=O)[C@@H](NC(=O)[C@H](C)NC(=O)[C@H](CCCCN)NC(=O)[C@@H](NC(=O)[C@H](C)N)[C@@H](C)O)C(C)C)C(C)C)C(C)C)C(=O)N[C@H](C(=O)N[C@@H](CC(N)=O)C(=O)N[C@@H](Cc1ccccc1)C(=O)O)[C@@H](C)CC [ATKAVCVLKGDGPVQGIINF]

MIC [6]: ≥ 388 µM | MIC [7]: ≥ 388 µM | MIC [8]: > 388 µM | MIC [9]: ≥ 388 µM | MIC [10]: ≥ 388 µM | MIC [11]: ≥ 388 µM | MIC [12]: > 388 µM | MIC [13]: ≥ 388 µM | MIC [14]: > 388 µM
SMILES: CC[C@H](C)[C@H](NC(=O)[C@H](CC(C)C)NC(=O)[C@@H]1CCCN1C(=O)[C@H](CC(C)C)NC(=O)[C@@H](N)Cc1ccccc1)C(=O)N[C@@H](CC(C)C)C(=O)N[C@@H](Cc1ccccc1)C(=O)N[C@@H](Cc1c[nH]c2ccccc12)C(=O)N[C@H](C(=O)N[C@H](C(=O)N[C@H](C(=O)N[C@@H](C)C(=O)N[C@@H](CC(C)C)C(N)=O)[C@@H](C)O)C(C)C)[C@@H](C)CC [FLPLILFWIVTAL]

MIC [15]: ≥ 200 µM | MIC [16]: > 200 µM | MIC (Escherichia coli K-12): ≥ 200 µM | MIC [8]: > 200 µM | MIC [11]: ≥ 200 µM
SMILES: CC(C)C[C@H](NC(=O)[C@H](CO)NC(=O)[C@H](CCC(=O)O)NC(=O)[C@H](CC(C)C)NC(=O)[C@H](CCC(N)=O)NC(=O)[C@H](CCC(N)=O)NC(=O)[C@H](CCC(=O)O)NC(=O)[C@H](CC(C)C)NC(=O)[C@H](CCC(N)=O)NC(=O)[C@H](CO)NC(=O)[C@H](CC(C)C)NC(=O)[C@H](CCC(=O)O)NC(=O)[C@H](CCC(N)=O)NC(=O)[C@H](CCC(=O)O)NC(=O)[C@H](CC(C)C)NC(=O)[C@H](CO)NC(=O)[C@H](CCC(N)=O)NC(=O)[C@H](C)NC(=O)[C@H](CCC(=O)O)NC(=O)[C@H](CCC(N)=O)NC(=O)[C@H](CCC(=O)O)NC(=O)[C@H](Cc1ccccc1)NC(=O)[C@H](CCC(N)=O)NC(=O)[C@H](C)NC(=O)[C@H](Cc1ccccc1)NC(=O)[C@H](CCC(=O)O)NC(=O)CN)C(=O)O [GEFAQFEQEAQSLEQELSQLEQQLESL]

MIC [17]: ≥ 112 µM | MIC [18]: ≥ 112 µM | MIC [19]: > 112 µM | MIC [20]: 15.4 µM (≈ 17.6 µg/mL) | MIC [21]: ≥ 112 µM | MIC [22]: ≥ 112 µM | MIC (Candida krusei NCPF 3876): ≥ 112 µM | MIC [23]: ≥ 112 µM
SMILES: CC[C@H](C)[C@H](N)C(=O)N[C@@H](CCCN=C(N)N)C(=O)NCC(=O)N[C@@H](Cc1ccc(O)cc1)C(=O)N[C@@H](CCCCN)C(=O)NCC(=O)NCC(=O)N[C@@H](Cc1ccc(O)cc1)C(=O)N[C@@H](CS)C(=O)N[C@@H](CCCCN)C(N)=O [IRGYKGGYCK]

MIC [19]: > 50 µM | MIC (Escherichia coli K-12): 12.5 µM (≈ 25 µg/mL) | MIC [24]: ≥ 50 µM
SMILES: CC(C)C[C@H](NC(=O)[C@H](Cc1ccccc1)NC(=O)[C@H](C)NC(=O)[C@H](C)NC(=O)[C@H](CCCCN)NC(=O)[C@H](CCCCN)NC(=O)[C@H](CCCCN)NC(=O)[C@@H](N)CCCCN)C(=O)N[C@@H](CCCCN)C(=O)N[C@@H](CC(C)C)C(=O)N[C@@H](Cc1c[nH]c2ccccc12)C(=O)N[C@@H](CC(C)C)C(=O)N[C@@H](CCCCN)C(=O)N[C@@H](CC(C)C)C(=O)N[C@@H](Cc1ccccc1)C(=O)N[C@@H](C)C(=O)N[C@@H](C)C(N)=O [KKKKAAFLKLWLKLFAA]

MIC [25]: 5.75 µM (≈ 8.49 µg/mL) | MIC [26]: 5.75 µM (≈ 8.49 µg/mL) | MIC [27]: 3.04 µM (≈ 4.5 µg/mL) | MIC [28]: 16.1 µM (≈ 23.8 µg/mL) | MIC [29]: 5.75 µM (≈ 8.49 µg/mL) | MIC [8]: 11.5 µM (≈ 17 µg/mL) | MIC [30]: 3.04 µM (≈ 4.5 µg/mL) | MIC [12]: 11.5 µM (≈ 17 µg/mL)
SMILES: CC[C@H](C)[C@H](NC(=O)[C@H](CCCCN)NC(=O)[C@H](CCCN=C(N)N)NC(=O)[C@H](Cc1ccccc1)NC(=O)[C@H](CC(C)C)NC(=O)[C@H](CCCN=C(N)N)NC(=O)[C@@H](N)CCCCN)C(=O)N[C@@H](CC(C)C)C(=O)N[C@@H](CCCCN)C(=O)N[C@@H](Cc1ccc(O)cc1)C(=O)N[C@@H](CC(C)C)C(N)=O [KRLFRKILKYL]

MIC [31]: 0.552 µM (≈ 2 µg/mL) | MIC [32]: 11 µM (≈ 39.9 µg/mL) | MIC [33]: 1.66 µM (≈ 6 µg/mL) | MIC [16]: 0.414 µM (≈ 1.5 µg/mL) | MIC [8]: > 8.83 µM | MIC [34]: 11 µM (≈ 39.9 µg/mL) | MIC [35]: > 8.83 µM | MIC [36]: 11 µM (≈ 39.9 µg/mL)
SMILES: CC[C@H](C)[C@H](NC(=O)[C@H](CC(C)C)NC(=O)[C@H](CC(N)=O)NC(=O)CNC(=O)[C@H](Cc1ccccc1)NC(=O)[C@@H](NC(=O)[C@H](CCCN=C(N)N)NC(=O)[C@@H](NC(=O)[C@H](CC(C)C)NC(=O)[C@H](CCC(N)=O)NC(=O)[C@H](Cc1ccc(O)cc1)NC(=O)[C@@H](N)Cc1c[nH]c2ccccc12)[C@@H](C)CC)[C@@H](C)O)C(=O)N[C@@H](Cc1cnc[nH]1)C(=O)N[C@@H](CCC(N)=O)C(=O)N[C@@H](CCCCN)C(=O)N[C@@H](Cc1ccc(O)cc1)C(=O)N[C@@H](CCCN=C(N)N)C(=O)N[C@@H](CCCCN)C(=O)N[C@@H](CC(C)C)C(=O)N[C@@H](CC(C)C)C(=O)N[C@@H](CCC(=O)O)C(=O)N[C@@H](C)C(=O)N[C@@H](Cc1ccc(O)cc1)C(=O)N[C@@H](CCCN=C(N)N)C(=O)N[C@@H](CCCCN)C(=O)N[C@@H](CC(C)C)C(=O)N[C@@H](CCCN=C(N)N)C(=O)N[C@@H](CC(=O)O)C(=O)O [WYQLIRTFGNLIHQKYRKLLEAYRKLRD]

Source: DBAASP
